Data from US8513227B2, “Inhibition of inflammatory cytokine production with tanshinones” (The Feinstein Institute for Medical Research, priority 2006, dated 2013).
Read-outs that look alike come from different tables or passages of the source.

Experiments:
HMGB1 [1] = experiment: LPS-induced HMGB1 release in RAW 264.7 macrophage cultures (western blot); assay type: cell-based, murine; conditions: for IC50: Mus musculus, read-out: estimated IC50 for LPS-induced HMGB1 release
From the text: Cell culture. […] Rendon-Mitchell et al. 2003). Murine macrophages were pre-cultured in RPMI 1640 medium (Gibco BRL, Grand Island, N.Y.) supplemented with 10% fetal bovine serum (FBS) and 2 mmol/L glutamine. Human peripheral blood mononuclear cells (HuPBMCs) were isolated from the blood of healthy donors (Long Island Blood Bank, Melville, N.Y.) by density gradient centrifugation through Ficoll (Ficoll-Paque PLUS, Pharmacia, Piscataway, N.J.), and cultured in RPMI 1640 supplemented with 10% heat-inactivated human serum/0.2 mM L-glutamine as previously described (Rendon-Mitchell et al. 2003). LPS stimulation. Adherent macrophages or monocytes were gently washed with, and cultured in, serum-free OPTI-MEM I medium two hours before stimulation with bacterial endotoxin (lipopolysaccharide, LPS, E. coli 0111:B4, Sigma-Aldrich). […] Rendon-Mitchell et al. 2003; Wang et al. 1999). HMGB1 western blotting analysis. The levels of HMGB1 in the culture medium or serum were determined by western blotting analysis as previously described (Chen et al. 2004; Rendon-Mitchell et al. 2003; Wang et al. 1999). The relative band intensity was quantified using NIH image 1.59 software to determine HMGB1 levels with reference to standard curves generated with purified HMGB1.

TNF = experiment: LPS-mediated TNF secretion in RAW 264.7 macrophages (ELISA); assay type: cell-based, murine; conditions: concentrations up to 10 μM, FIG. 5C
Description: Cell culture. Murine macrophage-like RAW 264.7 cells were obtained from the American Type Culture Collection (ATCC, Rockville, Md.), and primary peritoneal macrophages were isolated from Balb/C mice (male, 7-8 weeks, 20-25 grams) at 2-3 days after intraperitoneal injection of 2 ml thioglycollate broth (4%) as previously described (Chen et al. 2004; Rendon-Mitchell et al. 2003). Murine macrophages were pre-cultured in RPMI 1640 medium (Gibco BRL, Grand Island, N.Y.) supplemented with 10% fetal bovine serum (FBS) and 2 mmol/L glutamine. Human peripheral blood mononuclear cells (HuPBMCs) were isolated from the blood of healthy donors (Long Island Blood Bank, Melville, N.Y.) by density gradient centrifugation through Ficoll (Ficoll-Paque PLUS, Pharmacia, Piscataway, N.J.), and cultured in RPMI 1640 supplemented with 10% heat-inactivated human serum/0.2 mM L-glutamine as previously described (Rendon-Mitchell et al. 2003). LPS stimulation. […] The levels of TNF in the culture medium or serum were determined using commercial enzyme linked immunosorbent assay (ELISA) kits (Catalog no. MTA00, R & D Systems, Minneapolis, Minn.) with reference to standard curves of purified recombinant TNF at various dilutions as previously described (Chen et al. 2004; Rendon-Mitchell et al. 2003; Wang et al. 2006).

acetylcholinesterase = acetylcholinesterase (Homo sapiens, UniProt P22303); conditions: literature; cited from earlier work
HMGB1 [2] = conditions: Wang et al. 2006; cited from earlier work
nitric oxide = conditions: Wang et al. 2006; cited from earlier work
lethal sepsis = experiment: Lethal sepsis induced by cecal ligation and puncture (CLP) in Balb/C mice; assay type: in vivo; conditions: 12 mg/kg, repeated at 24, 48, 72, 96 hours post onset; vehicle 50%; N=14, p>0.05
Description: Animal models of endotoxemia and sepsis. This study was approved and performed in accordance with the guidelines for the care and use of laboratory animals at the Feinstein Institute for Medical Research, Manhasset, N.Y. Endotoxemia was induced in Balb/C mice (male, 7-8 weeks) by intraperitoneal injection of bacterial endotoxin (LPS, 15 mg/kg) as previously described (Chen et al. 2005; Wang et al. 1999; Wang et al. 2006). Sepsis was induced in male Balb/C mice (7-8 weeks, 20-25 g) or Sprague-Dawley rats (290-310 g) by cecal ligation and puncture (CLP) as previously described (Wang et al. 2006; Yang et al. 2002b). Herbal components were administered intraperitoneally into mice at indicated doses and time points, and mice were monitored for survival for up to two weeks. In parallel experiments, mice were euthanized to collect blood at 28 h (following two doses of herbal components at −0.5 and +24 h) after endotoxemia, and at 52 h (following two doses of herbal components at +24 and +48 h) after CLP.
TNF ELISA. The levels of TNF in the culture medium or serum were determined using commercial enzyme linked immunosorbent assay (ELISA) kits (Catalog no. MTA00, R & D Systems, Minneapolis, Minn.) with reference to standard curves of purified recombinant TNF at various dilutions as previously described (Chen et al. 2004; Rendon-Mitchell et al. 2003; Wang et al. 2006).
Nitric oxide assay. The levels of nitric oxide in the culture medium were determined indirectly by measuring NO^2− production with a colorimetric assay based on the Griess reaction (Rendon-Mitchell et al. 2003). NO2-concentrations were determined with reference to a standard curve generated with sodium nitrite at various dilutions.
HMGB1 western blotting analysis. The levels of HMGB1 in the culture medium or serum were determined by western blotting analysis as previously described (Chen et al. 2004; Rendon-Mitchell et al. 2003; Wang et al. 1999). The relative band intensity was quantified using NIH image 1.59 software to determine HMGB1 levels with reference to standard curves generated with purified HMGB1.
Tissue histology. At 48 hours after CLP, mice were euthanized in CO2 Chamber, and immediately perfused (transcardially) with phosphate buffer saline and 4% paraformaldehyde. Various tissues were harvested, sectioned, and stained with hematoxylin and eosin for morphology evaluation.

phospholipase A2 = conditions: Kim et al. 2002; cited from earlier work
[3] = superpharmacological concentrations (1-25 μM), data not shown
[4] = RAW264.7, RAW 264.7 cells, 16 h after LPS, western blot, estimated

Chain of acetylcholinesterase (P22303 32-614, species assumed): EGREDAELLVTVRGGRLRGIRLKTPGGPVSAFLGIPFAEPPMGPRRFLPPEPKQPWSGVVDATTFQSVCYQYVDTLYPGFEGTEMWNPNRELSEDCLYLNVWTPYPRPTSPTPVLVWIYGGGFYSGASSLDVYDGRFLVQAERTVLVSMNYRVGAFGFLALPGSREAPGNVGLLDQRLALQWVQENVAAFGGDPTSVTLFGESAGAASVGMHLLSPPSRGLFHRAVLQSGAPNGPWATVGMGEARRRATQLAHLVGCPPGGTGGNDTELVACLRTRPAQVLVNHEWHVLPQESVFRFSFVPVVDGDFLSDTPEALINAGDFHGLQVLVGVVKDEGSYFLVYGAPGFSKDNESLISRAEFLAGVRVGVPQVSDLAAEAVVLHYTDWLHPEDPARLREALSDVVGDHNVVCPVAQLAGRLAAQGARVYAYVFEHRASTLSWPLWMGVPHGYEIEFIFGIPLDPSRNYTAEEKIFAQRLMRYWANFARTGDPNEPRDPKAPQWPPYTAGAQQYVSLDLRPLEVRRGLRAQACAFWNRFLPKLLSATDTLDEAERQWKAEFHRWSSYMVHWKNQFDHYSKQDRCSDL

## CC(=O)Oc1ccccc1C(=O)O [aspirin]
HMGB1 [1]; [3]
  effect on LPS-induced HMGB1 release: None of the tested cyclooxygenase inhibitors (e.g., aspirin, ibuprofen, and indomethacin) significantly affected

## C[C@]12CCC(=O)C=C1CC[C@@H]1[C@@H]2C(=O)C[C@@]2(C)[C@H]1CC[C@]2(O)C(=O)CO [cortisone]
HMGB1 [1]; concentrations up to 10 μM, FIG. 5B
  effect on LPS-induced HMGB1 release: failed to reduce
TNF
  effect on LPS-mediated TNF secretion: effectively attenuated

## CC1COC2=C1C(=O)C(=O)c1c2ccc2c1CCCC2(C)C (centres unmarked) [cryptotanshinone, 1,6,6-Trimethyl-1,2,6,7,8,9-hexahydro-phenanthro[1,2-b]furan-10,11-dione]
acetylcholinesterase
  inhibition of acetylcholinesterase: can inhibit
HMGB1 [1]; RAW264.7, 16 h
  IC50: < 25 µM

## COc1cc(/C=C/C(=O)O)ccc1O [ferulic acid]
HMGB1 [2]
  effect on LPS-induced HMGB1 release: failed to affect
Nitric oxide
  effect on LPS-induced nitric oxide production: effectively attenuated

## CC(C)Cc1ccc(C(C)C(=O)O)cc1 (centres unmarked) [ibuprofen]
HMGB1 [1]; [3]
  effect on LPS-induced HMGB1 release: None of the tested cyclooxygenase inhibitors (e.g., aspirin, ibuprofen, and indomethacin) significantly affected

## COc1ccc2c(c1)c(CC(=O)O)c(C)n2C(=O)c1ccc(Cl)cc1 [indomethacin]
HMGB1 [1]; [3]
  effect on LPS-induced HMGB1 release: None of the tested cyclooxygenase inhibitors (e.g., aspirin, ibuprofen, and indomethacin) significantly affected

## Cc1coc2c1C(=O)C(=O)c1c-2ccc2c1CCCC2(C)C [tanshinone IIA, 1,6,6-Trimethyl-6,7,8,9-tetrahydro-phenanthro[1,2-b]furan-10,11-dione]
Lethal sepsis
  survival rate, lethal sepsis: 61%
HMGB1 [1]; [4]
  IC50: < 25 µM

## Cc1coc2c1C(=O)C(=O)c1c-2ccc2c(C)cccc12 [tanshinone I]
Lethal sepsis
  survival rate, lethal sepsis: 57%
Phospholipase A2
  inhibition of phospholipase A2: can inhibit
HMGB1 [1]; [4]
  IC50: < 25 µM
